The text below walks through data of patent publication US10040798B2, “Pyrrolopyridazine inhibitors of IRAK4 activity” (MERCK SHARP & DOHME CORP., priority 2015, dated 2018).

By IC50 is commonly meant the concentration needed to halve the response being measured. Low readings indicate inhibition by little substance, high ones a need for much substance.

The experiment concerns the target IRAK4 (Homo sapiens (Human), UniProt Q9NWZ3). The experiment in a line: IRAK4 Kinase Assay (IMAP fluorescence polarization). The format is biochemical. The note with it: 0.5 nM GST tagged IRAK4, 100 μM ATP, 30 minutes at 25° C., IMAP FP. A digest of the protocol:
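GST-tagged IRAK4 (0.5 nM) phosphorylated 100 nM fluorescent peptide RP7030 with 100 μM ATP in 10 mM Tris-HCl pH 7.2, MgCl2, DTT and Tween 20 for 30 min at 25 °C. Phosphorylation was read as the increase in fluorescence polarization after binding to IMAP nanoparticles.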
For orientation: Fluorescence polarisation rises when a labelled molecule tumbles more slowly, as on binding a larger partner.

Structures can show the parent of a compound that is named as a salt.

Sequence of IRAK4 (Q9NWZ3 whole entry): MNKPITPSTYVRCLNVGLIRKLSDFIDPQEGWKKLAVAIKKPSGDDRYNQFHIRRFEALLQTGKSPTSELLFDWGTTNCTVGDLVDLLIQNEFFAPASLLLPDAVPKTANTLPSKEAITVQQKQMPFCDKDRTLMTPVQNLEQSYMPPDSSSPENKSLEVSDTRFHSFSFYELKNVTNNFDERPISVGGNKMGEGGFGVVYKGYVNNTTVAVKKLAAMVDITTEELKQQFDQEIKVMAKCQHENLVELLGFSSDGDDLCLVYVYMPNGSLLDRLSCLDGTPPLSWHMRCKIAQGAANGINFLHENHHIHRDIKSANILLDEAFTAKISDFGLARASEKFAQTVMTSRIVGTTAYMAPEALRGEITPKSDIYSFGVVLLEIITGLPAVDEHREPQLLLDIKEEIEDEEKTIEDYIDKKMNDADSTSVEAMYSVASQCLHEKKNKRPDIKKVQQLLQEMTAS

`CC(C)n1cc(NC(=O)c2ccc3ccc(N[C@@H]4CCCC[C@@H]4O)nn23)c(C(F)F)n1` [Example 55, N-[3-(difluoromethyl)-1-(1-methylethyl)-1H-pyrazol-4-yl]-2-{[(1R,2S)-2-hydroxycyclohexyl]amino}pyrrolo[1,2-b]pyridazine-7-carboxamide trifluoroacetate]: the IC50 stood at 53 nM.

The compound `N[C@@H]1[C@H](Nc2ccc3ccc(C(=O)Nc4cscc4Cl)n3n2)CCCC1(F)F` [Example 87, 2-{[(1R,2R)-2-amino-3,3-difluoro-cyclohexyl]amino}-N-(4-chlorothiophen-3-yl)pyrrolo[1,2-b]pyridazine-7-carboxamide acetate] yielded an IC50 of 2170 nM.

Compound `O=C(Nc1ccccc1Br)c1ccc2ccc(N3CCCNCC3)nn12` [Example 57, N-(2-bromophenyl)-2-(1,4-diazepan-1-yl)pyrrolo[1,2-b]pyridazine-7-carboxamide trifluoroacetate] displayed an IC50 of 3960 nM.

With `N[C@@H]1[C@H](Nc2ccc3ccc(C(=O)Nc4ccccc4Cl)n3n2)CCCC1(F)F` [Example 92, 2-{[(1R,2R)-2-amino-3,3-difluoro-cyclohexyl]amino}-N-(2-chlorophenyl)pyrrolo[1,2-b]pyridazine-7-carboxamide trifluoroacetate], half-maximal inhibition (IC50) was put at 2060 nM.

`N#Cc1sccc1NC(=O)c1ccc2ccc(N3C[C@H]4CC[C@@H]3CN4)nn12` (single isomer, unassigned) [Example 81, N-(2-cyanothiophen-3-yl)-2-[(1S,4S)- or (1R,4R)-2,5-diazabicyclo[2.2.2]oct-2-yl]pyrrolo[1,2-b]pyridazine-7-carboxamide formate]: the IC50 was found to be 356 nM.

For the compound `N#Cc1sccc1NC(=O)c1ccc2ccc(N[C@@H]3CCCC[C@@H]3N)nn12` [Example 75, 2-{[(1R,2S)-2-aminocyclohexyl]amino}-N-(2-cyanothiophen-3-yl)pyrrolo[1,2-b]pyridazine-7-carboxamide trifluoroacetate], the midpoint of inhibition, the IC50, lay at 2 nM.

`N#Cc1ccccc1NC(=O)c1ccc2ccc(N[C@@H]3CCCCNC3)nn12` (single isomer, unassigned) [Example 108, 2-[(3R)- or (3S)-azepan-3-ylamino]-N-(2-cyanophenyl)pyrrolo [1,2-b]pyridazine-7-carboxamide trifluoroacetate]: the IC50 was found to be 89 nM.

In the case of `N#Cc1ccccc1NC(=O)c1ccc2ccc(N3CC4CCC3CN4)nn12` (stereo not drawn) [Example 102, N-(2-cyanophenyl)-2-(2,5-diazabicyclo[2.2.2]oct-2-yl)pyrrolo[1,2-b]pyridazine-7-carboxamide trifluoroacetate], the midpoint of inhibition, the IC50, lay at 461 nM.

Compound `Cn1cc(NC(=O)c2ccc3ccc(N4C[C@@H]5CNC[C@H]4C5)nn23)c(C(F)(F)F)n1` [Example 122, 2-[(1S,5R)-(1R,5S)-3,6-diazabicyclo[3.2.1]oct-6-yl]-N-[1-methyl-3-(trifluoromethyl)-1H-pyrazol-4-yl]pyrrolo[1,2-b]pyridazine-7-carboxamide] gave an IC50 of 39 nM.

`Cn1cc(NC(=O)c2ccc3ccc(N4CC5CCC(C4)N5)nn23)c(C(F)F)n1` [Example 46, 2-(3,8-diazabicyclo[3.2.1]oct-3-yl)-N-[3-(difluoromethyl)-1-methyl-1H-pyrazol-4-yl]pyrrolo[1,2-b]pyridazine-7-carboxamide trifluoroacetate] registered an IC50 of 1 nM.

As for `N[C@@H]1[C@H](Nc2ccc3ccc(C(=O)Nc4ccccc4C(F)F)n3n2)CCCC1(F)F` [Example 118, 2-{[(1R,2R)-2-amino-3,3-difluorocyclohexyl]amino}-N-[2-(difluoromethyl)phenyl]pyrrolo[1,2-b]pyridazine-7-carboxamide trifluoroacetate], the IC50 came out at 7390 nM.

The compound `N[C@@H]1[C@H](Nc2ccc3ccc(C(=O)Nc4ccsc4C(F)(F)F)n3n2)CCCC1(F)F` [Example 117, 2-{[(1R,2R)-2-amino-3,3-difluorocyclohexyyl]amino}-N-[2-(trifluoromethyl)thiophen-3-yl]pyrrolo[1,2-b]pyridazine-7-carboxamide trifluoroacetate] registered an IC50 of 2980 nM.
